Series [1] has as its system P. acnes. The experiment in a line: PDT with CureLight LED 128 (Aktilite) lamp, P. acnes survival. The format is cell-based, Propionibacterium acnes. The following applies: for PDT effect, photodynamic inactivation (FIG. 10) / kill: 0.4 mM; for PDT effect, photodynamic inactivation (FIG. 10): Aktilite 128 lamp; for kill: 10 minutes illumination; for bacteria killed: 26 minutes of illumination (78 J/cm^2). The method, then:
(§1) Propionibacterium acnes (P. acnes) was obtained from American Type Culture Collection (ATCC No. 6919), and bacteria were grown anaerobically in the dark on blood-agar plates at 37° C.
(§2) PIPES buffer (ca. 1 ml) was added to each blood-agar petri-plate and with the help of a sterile glass-rod and a Pasteur pipette, the bacteria solution was transferred to a 20 ml test-tube. The suspension was then diluted with PIPES buffer until the optical density (OD) was 1.00±0.01 at 550 nm as measured by a spectrophotometer. At this OD the bacteria density is approximately 5×10^8 cells per ml.
(§3) A bacteria sample (100 μl of the suspension containing approx. 5×10^8 bacteria per ml) was collected and used as a t=0 control. Aliquots of the bacteria suspension were mixed with suitable volumes of the stock solutions of 5-ALA esters (containing 100 mM ALA ester) to obtain the appropriate concentrations and incubated for 4 hours at 37° C. in the dark. If illumination was not performed, survival was then assessed as described below.
(§4) After treatment with ALA esters (with or without illumination), the treated bacteria samples (as well as untreated controls) were collected and further diluted with PIPES buffer to 1×10^4 bacteria per ml. Aliquots of 20 ml of this suspension were then transferred to Bactoagar Petri-dishes (Futsaether et al., Can. J. Microbiol., 39(2): 180-186 1993), and incubated for 3-5 days at 37° C. in the dark. The colonies formed on the Bactoagar Petri-plates were counted using a colony counter. Cell survival after incubation with different concentrations of 5-ALA esters is given relative to the control samples (i.e. samples collected at t=0 hrs and the sample collected after 4 hrs incubation without 5-ALA ester) and given as percent survival: Survival=[Ctreated/Ccontrol]×100%
In order to compare the ALA hexyl ester and the ALA benzyl ester at the same concentration (1 mM), and also to test another light source, another experiment involving the use of a narrow-band red light (CureLight LED 128 lamp sold under the tradename Aktilite by Photocure ASA, Norway) was conducted. This lamp consists of 128 light emitting diodes (LED) and has a peak wavelength of 634±3 nm. The emission spectrum of the lamp has a full width at half maximum (FWHM) of 18 nm. The fluence rate at 50 mm distance is approx. 50 mW/cm^2 (max. fluence rate variation of the target area is ±10%).
After incubation with the ALA esters, 10 ml bacterial suspensions were irradiated in a 5.5 cm plastic petri-dish (see general section above). The petri-dishes were placed on a support lying in a large water-reservoir at ambient temperature in order to avoid temperature effects. […] After 3-5 days of incubation (at 37° C. in the dark) the survival was determined as described in the general section and given relative to the non-illuminated control sample.
Photodynamic inactivation of P. acnes after incubation with the 5-ALA esters listed in Example 9 (at 0.4 mM concentration) was studied following illumination with an Aktilite® 128 lamp.

Series [2] concerns Propionibacterium acnes (P. acnes). The experiment in a line: Dark toxicity of ALA esters in P. acnes (survival assay, colony forming ability). The format is cell-based. The following applies: for % CFU (mean normalised colony-forming units): 4 hours in the dark at 37° C.; for dark toxicity (FIG. 2): Example 1, concentrations up to 20 mM, 4 hours in the dark. The procedure:
as §1
PIPES buffer (ca. 1 ml) was added to each blood-agar petri-plate and with the help of a sterile glass-rod and a Pasteur pipette, the bacteria solution was transferred to a 20 ml test-tube. The suspension was then diluted with PIPES buffer until the optical density (OD) was 1.00±0.01 at 550 nm as measured by a spectrophotometer.
as §3, §4
In order to find suitable conditions for studying the photodynamic effect in P. acnes after incubation with ALA esters, a study was performed to assay the toxicity of the esters. This was done in the dark to avoid any PDT effect caused by stray light.
In order to find suitable conditions for studying the photodynamic effect in P. acnes after incubation with benzyl-, 4-chlorobenzyl-, 4-nitrobenzyl-, 2-methylbenzyl-, 4-methylpentyl- and 2-methoxyethyl 5-aminolevulinate, a study was performed to assay the toxicity of these compounds. This was done in the dark, as in Example 1, to avoid any PDT effect caused by stray light.

For series [3] the following is noted: Itoh et al. 2001; Hongcharau et al. 2000; cited from earlier work.
For series [4], the system named is P. acnes. The experiment in a line: Intracellular porphyrin formation in P. acnes (fluorescence emission). Particulars: four hours incubation at 37° C. in the dark, various concentrations. The format is cell-based, Propionibacterium acnes. The procedure: To study the intracellular porphyrin formation after incubation with the ALA esters, bacteria (5×10^8 cells per ml, 10 ml) were incubated with ALA esters at 37° C. in the dark for four hours. The formation of porphyrins was followed by studying the fluorescence emission spectra (the porphyrins display characteristic peaks). The procedure was as follows:
To assess the amount of endogenously retained porhyrins, 8 ml of the 5-ALA ester incubated bacteria were added to plastic test-tubes and incubated at 2-3° C. in the refrigerator to halt further 5-ALA ester uptake and/or porhyrin formation. Then the cells from were pelleted by centrifugation (5000 g, 5 rain, 2-3° C.), the supernatant discarded and the cells resuspended in fresh buffer (8 ml) and mixed well. Aliquots of 2 ml bacterial suspension were transferred to standard disposable plastic cuvettes, and fluorescence emission spectra of the cell suspensions were determined in a Perkin Elmer LS 50B fluorescence spectrometer using the following settings:
Excitation wavelength, λx: 405 nm
Emission wavelength, λe: 550-700 nm
Excitation and emission slits: 5 nm
Emission monochromator speed: 300 nm/min
The fairly broad range of wavelengths measured was motivated by the need to have a control of the autofluorescence from the bacteria, which is most easily discernable at the lower or higher wavelengths.

For series [5], the system named is P. acnes. The experiment in a line: PDT with CureLight BroadBand lamp, P. acnes survival. The format is cell-based, Propionibacterium acnes. Particulars: for effectiveness to kill the bacteria (FIG. 3): 4 mM methyl ester, 4 mM benzyl ester, 1 mM hexyl ester, red light 580-740 nm. The method, then:
as §1, §2, §3
In some cases, illumination was performed on the bacteria-suspensions treated with ALA esters. The exact conditions are described in the Examples below. After illumination, survival was assayed as described below.
as §4
Bacteria suspensions (P. acnes) were treated with 4 mM ALA methyl ester, 4 mM benzyl ester and 1 mM hexyl ester (due to high dark toxicity results for this ester) as described in the general section above, diluted and illuminated using a CureLight BroadBand lamp (available from PhotoCure ASA, Norway, red light of 580-740 nm and a fluence rate of ≦840 W/m^2) under temperature controlled conditions (e.g. at ambient temperature). During illumination, 2×20 μl aliquots were collected every second minute for at total of 10 minutes and assayed for survival as described in the general section above. Relative survival after illumination was calculated relative to the control sample without red light exposure.

For series [6], the system named is P. avidum. The experiment in a line: Dark toxicity in P. avidum. The format is cell-based, Propionibacterium avidum. The method, then:
Propionibacterium avidum (P. avidum) was obtained from ATCC (ATCC No. 25577).
as §2, §3
After treatment with ALA esters (with or without illumination), the treated bacteria samples (as well as untreated controls) were collected and further diluted with PIPES buffer to 1×10^4 bacteria per ml. Aliquots of 20 ml of this suspension were then transferred to Bactoagar Petri-dishes (Futsaether et al., Can. J. Microbiol., 39(2): 180-186 1993), and incubated for 3-5 days at 37° C. in the dark. The colonies formed on the Bactoagar Petri-plates were counted using a colony counter. […]

Series [7] deals with P. granulosum. The experiment in a line: Dark toxicity in P. granulosum. The class given is cell-based, Propionibacterium granulosum. The method, then:
Propionibacterium granulosum (P. granulosum) was obtained from American Type Culture Collection (ATCC No. 25564).
as §2, §3
After treatment with ALA esters (with or without illumination), the treated bacteria samples (as well as untreated controls) were collected and further diluted with PIPES buffer to 1×10^4 bacteria per ml. […] The colonies formed on the Bactoagar Petri-plates were counted using a colony counter. […]

The mark [8] stands for this setting: Example 9, concentrations up to 20 mM.
Where [9] appears, read: hexylester compared with benzylester.

With `CC(C)CCCOC(=O)CCC(=O)CN` [4-methylpentyl, 4-methylpentyl ALA ester], the “PDT effect, photodynamic inactivation (FIG. 10)” value (“PDT effect” for short) in series [1] is recorded as “weaker PDT effect”. The “% CFU (mean normalised colony-forming units)” value came to 86.5% in series [2] (0.4 mM), 37.3% in series [2] (4 mM) and 0.5% in series [2] (20 mM).
With `COCCOC(=O)CCC(=O)CN` [2-methoxyethyl, 2-methoxyethyl 5-aminolevulinate], the “PDT effect” value in series [1] was “weaker PDT effect”. Further, the “% CFU (mean normalised colony-forming units)” value is listed as 75.5% in series [2] (0.4 mM), 60.8% in series [2] (4 mM) and 54.0% in series [2] (20 mM). In series [2] (setting [8]), the “dark toxicity (in words)” value is reported as “almost no toxicity”.
Regarding `NCC(=O)CCC(=O)O` [5-ALA, 5-amino-4-oxo-pentanoic acid], in series [3], the “adverse effects of ALA-PDT” value is recorded as “significant adverse effects” and the “efficacy of ALA-PDT for treatment of acne” value is “may be effective”.
Take `Cc1ccccc1COC(=O)CCC(=O)CN` [2-methylbenzyl, 2-methylbenzyl ALA ester]: the kill entry in series [1] was “approx. 50%”. Besides, the “PDT effect” value in series [1] is on record as “good abilities to kill the bacteria”. Moreover, the “% CFU (mean normalised colony-forming units)” value in series [2] (0.4 mM) came to 66.0%; in series [2] (4 mM), 1.2%; in series [2] (20 mM), 0.0%. Moreover, in series [2] (Example 9, at 4 mM), the “dark toxicity (in words)” value was “considerable toxicity”.
On to `COC(=O)CCC(=O)CN` [ALA methyl ester, methyl ALA ester], for which the “inducing porphyrin formation (FIG. 5)” value in series [4] is “slightly higher porphyrin levels”. Besides, the “effectiveness to kill the bacteria (FIG. 3)” value (shortened to “effectiveness”) in series [5] was “least effective”. The “dark toxicity (FIG. 2)” value in series [2] is given as “essentially non-toxic”.
As to `NCC(=O)CCC(=O)OCc1ccc(Cl)cc1` [4-chlorobenzyl, 4-chlorobenzyl ALA ester], in series [1], the kill is recorded as ~100%. The “PDT effect” value in series [1] is “most efficient”. Moreover, the “% CFU (mean normalised colony-forming units)” value in series [2] (0.4 mM) was 81.6%; in series [2] (4 mM), 3.7%; in series [2] (20 mM) it was 0.0%. Besides, in series [2] (Example 9, at 4 mM), the “dark toxicity (in words)” value is reported as “considerable toxicity”.
In turn, `CCCCCCOC(=O)CCC(=O)CN` [ALA hexyl ester, Hexyl 5-aminolevulinate] gave a bacteria killed in series [1] (1 mM) of 40%. Also, the “inducing porphyrin formation (FIG. 5)” value in series [4] is “least effective”. Also, the “effectiveness” value in series [5] is given as “quite effective”. Further, the “dark toxicity (FIG. 2)” value in series [2] is on record as “very toxic”. For the same compound, the killed in series [6] (4 mM, dark) turned out to be 100%; in series [7] (4 mM, dark), 100%. Further, the “dark toxicity (FIG. 6)” value in series [6] (setting [9]) and in series [7] (setting [9]) was “considerably more toxic” throughout.
For the compound `NCC(=O)CCC(=O)OCc1ccc([N+](=O)[O-])cc1` [4-nitrobenzyl, 4-nitrobenzyl ALA ester], in series [1], the kill is on record as ~100%. Also, the “PDT effect” value in series [1] is recorded as “most efficient”. Further, the “% CFU (mean normalised colony-forming units)” value was 63.5% in series [2] (0.4 mM), 61.8% in series [2] (4 mM) and 53.2% in series [2] (20 mM). Moreover, the “dark toxicity (in words)” value in series [2] (setting [8]) was “almost no toxicity”.
Consider `NCC(=O)CCC(=O)OCc1ccccc1` [Benzyl, benzyl 5-aminolevulinate], for which the kill result in series [1] was “approx. 50%”. Moreover, in series [1], the “PDT effect” value is “good abilities to kill the bacteria”. In addition, the bacteria killed result in series [1] (1 mM) is “killed all bacteria”. In series [1] (1 mM, LED lamp 634 nm), the “photodynamic effect (FIG. 4)” value is “much better photodynamic effect”. In series [4], the “inducing porphyrin formation (FIG. 5)” value was “by far the most effective inducer”. Besides, the “effectiveness” value in series [5] is reported as “most effective”. For the same compound, in series [5] (4 mM, CureLight BroadBand lamp), the “light dose sufficient to obtain 100% kill” value was “approx. 10 J/cm^2”. Also, the “% CFU (mean normalised colony-forming units)” value was determined as 78.3% in series [2] (0.4 mM), 62.9% in series [2] (4 mM) and 15.0% in series [2] (20 mM). Also, the “dark toxicity (FIG. 2)” value in series [2] is on record as “intermediate toxicity”.

The record behind these values is patent US8546447B2, “Treatment of acne using derivatives of 5-aminolevulinic acid” (Photocure ASA, priority 2004, dated 2013).
